{
  "source": "paper PMC10224356",
  "about": "“Trisubstituted 1,3,5-Triazines as Histamine H4 Receptor Antagonists with Promising Activity In Vivo” (Molecules, 2023)",
  "key": {"mice [1]": {"system": "mice", "experiment": "Chloroquine-induced pruritus", "assay_type": "in vivo", "source_text": "When comparing the activity of the tested in both used models, it should be noted that the efficacy (higher maximal effect) and potency (lower doses needed to obtain the same result) of the compound were better in histamine-induced pruritus. Nevertheless, compound 6 was also active in histamine-independent itch, which contrasts with the activity of pyrilamine representing a commonly used drug in the treatment of pruritus. […] The wide spectrum of antipruritic activity of compound 6 is very promising, considering that histamine-independent itch is still a crucial clinical problem in pruritus treatment.\n(§1) The surface (around 2 cm^2) of the mice’s nape was shaved at least 2 days prior to experiments. On the day of the experiment, mice were individually placed in plastic chambers (15 × 15 × 30 cm) and after the 30 min habituation period, they were given an intradermal (i.d.) injection of histamine dihydrochloride (10 µmol/site) or chloroquine (CQ, 200 µg/site), which were dissolved in physiological saline and administrated in the constant volume of 20 μL. Immediately after the injection, scratching (series of movements considered as a single scratching bout) of the injected site by the hind paw was counted for 60 min or 30 min after histamine and CQ administration, respectively. Before pruritogens injection different groups of mice were treated i.p. with vehicle (10 mL/kg, negative control) or the dose–response of investigated compound.\n(§2) Figure 9 The effect of compound 6 and reference compound pyrilamine (Pyr) on the number of scratching bouts during 60 min-long observation in histamine-induced pruritus (A) and 30 min-long observation in chloroquine-induced pruritus (B). The tested compound or vehicle (1% solution of Tween 80) was administered intraperitoneally (i.p.) 30 min before the intradermal (i.d.) injection of histamine or chloroquine. The results are presented as bar plots showing the mean ± SEM. Statistical analysis: one-way ANOVA followed by Dunnett’s post hoc test, * p < 0.05, ** p < 0.01, *** p < 0.001, n = 8–10 mice per group."}, "mice [2]": {"system": "mice", "experiment": "Formalin test", "assay_type": "in vivo", "conditions": "for Paw licking/biting, late phase of formalin test, % of the control group: 15–30 min after formalin", "procedure": "The blockade of H4Rs expressed in inflammatory cells results in anti-inflammatory and analgesic effects. On the contrary, the activation of neuronal H4Rs leads to analgesia.\nThe procedure used was essentially the same as that described previously. […] The total time (in s) spent on licking the injected paw during periods of 0–5 min (early phase, neurogenic) and 15–30 min (late phase, inflammatory) was measured and was considered as an indicator of nociceptive behaviour. Before formalin injection different groups of mice were treated i.p. with vehicle (10 mL/kg, negative control) and the dose–response of the investigated compound."}, "H1R": {"biological_target": "H1R (Homo sapiens, UniProt P35367)", "sequence (P35367 whole entry, species assumed)": "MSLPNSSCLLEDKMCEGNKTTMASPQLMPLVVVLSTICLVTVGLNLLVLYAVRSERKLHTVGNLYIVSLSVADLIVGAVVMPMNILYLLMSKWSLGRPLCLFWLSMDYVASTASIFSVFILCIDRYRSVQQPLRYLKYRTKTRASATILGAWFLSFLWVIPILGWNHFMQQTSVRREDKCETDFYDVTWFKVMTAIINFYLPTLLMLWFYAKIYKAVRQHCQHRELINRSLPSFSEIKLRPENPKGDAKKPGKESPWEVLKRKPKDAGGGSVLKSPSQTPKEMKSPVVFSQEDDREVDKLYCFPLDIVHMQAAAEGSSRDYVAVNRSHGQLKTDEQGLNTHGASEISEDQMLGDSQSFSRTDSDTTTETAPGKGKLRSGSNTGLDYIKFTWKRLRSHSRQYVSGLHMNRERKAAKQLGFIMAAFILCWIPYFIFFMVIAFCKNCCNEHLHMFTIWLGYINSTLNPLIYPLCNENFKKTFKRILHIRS", "experiment": "Preliminary study at H1R"}, "[3]": {"experiment": "PAMPA assay (blood-brain barrier permeability)", "assay_type": "in vitro ADME", "procedure": "This test is a popular method for estimating the possibility of crossing BBB through passive transport. […] Caffeine was used as a standard well-permeable compound.\nThe Gentest^TM PAMPA Plate System, purchased from Corning (Tewksbury, MA, USA), was used for permeability evaluation. Caffeine (a reference) and the compound tested were dissolved in DMSO (10 mM stocks) and after dilution to 200 μM in PBS (pH 7.4), added to donor wells. Then, after incubation for 5 h at room temperature, concentrations of tested compounds in donor and acceptor wells were estimated by the mass spectra (LC/MS) method as described previously. The UPLC/MS Waters […] TQD system with the TQ Detector (Waters, Milford, CT, USA) was used for this detection. The assay was performed in triplicate. The permeability value (Pe) was calculated using the formula described by Chen et al.."}, "mice [4]": {"system": "mice", "experiment": "Histamine-induced pruritus", "assay_type": "in vivo", "conditions": "25 mg/kg i.p.", "procedure": "Intradermal injection of histamine induced scratching bouts in the amount of 62.11 ± 9.4. […].\nas §1, §2"}, "hH4R [5]": {"biological_target": "T1, hH4R (Homo sapiens, UniProt Q9H3N8)", "T1 sequence (Q9H3N8 whole entry)": "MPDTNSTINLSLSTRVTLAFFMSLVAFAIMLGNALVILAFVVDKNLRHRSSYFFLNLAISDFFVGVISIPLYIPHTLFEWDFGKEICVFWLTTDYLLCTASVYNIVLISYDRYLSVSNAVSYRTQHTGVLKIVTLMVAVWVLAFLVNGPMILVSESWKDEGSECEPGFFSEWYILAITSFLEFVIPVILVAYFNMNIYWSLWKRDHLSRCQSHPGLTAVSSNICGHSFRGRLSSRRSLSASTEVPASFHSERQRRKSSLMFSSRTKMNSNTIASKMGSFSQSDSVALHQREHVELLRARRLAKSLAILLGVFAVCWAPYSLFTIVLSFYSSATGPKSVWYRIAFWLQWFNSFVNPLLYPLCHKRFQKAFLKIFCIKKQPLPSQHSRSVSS", "experiment": "cAMP accumulation assay (LANCE Ultra cAMP, CHO-K1 cells stably expressing hH4R)", "assay_type": "cell-based", "parameters": "expressed in transfected cells", "conditions": "antagonist mode"}, "hH4R [6]": {"biological_target": "T1, hH4R", "experiment": "β-arrestin recruitment assay (LiveBLAzer, Tango-H4-bla U2OS cells)", "assay_type": "cell-based", "parameters": "expressed in transfected cells; host or cells: Tango-H4-bla U2OS cells", "procedure": "Compounds were tested using LiveBLAzer^TM assay and Tango-H4-bla U2OS cells, allowing the estimation of the percentage of β-arrestin recruitment in response to tested treatments.\nAll used media and reagents except DMSO and tested compounds were purchased from ThermoFisher Scientific, Waltham, MA, USA. DMSO was from CarlRoth (Karlsruhe, Germany) and histamine was from Sigma Aldrich (Darmstadt, Germany). […] The day before the experiment cells were collected from the culture flask with trypsin and seeded in 384 well black-wall, clear-bottom plate (PerkinElmer, Waltham, MA, USA) in concentration 10,000 cells/well in FreeStyle medium. After 24 h of incubation, the cells were checked under the microscope and the dilutions of tested compounds were prepared and added to the wells. In agonist mode compounds were added to the wells and plates were placed in the incubator (HERAcell240, Heraeus, Hanau, Germany) for 16 h. In antagonist mode, first, the compounds were added to the wells, plates were incubated for 30 min, then histamine solution (corresponding to EC80—500 nM) was added and plates were put in the incubator for 16 h. After this time β-lactamase substrate mixture was prepared and added to wells (8 µL/well). Cells were incubated for 2 h at room temperature in the dark then the signal was read using an EnSpire microplate reader (PerkinElmer, Waltham, MA, USA). Drawing of dose-dependent curves and IC50 calculation for compounds were made using GraphPad Prism 6 (GraphPad Software, San Diego, CA, USA)."}},
  "data": [
    {"compound": "CN1CCN(c2nc(N)nc(CC3CCCC3)n2)CC1", "note": "[Compound 6, 4-(Cyclopentylmethyl)-6-(4-methylpiperazin-1-yl)-1,3,5-triazin-2-amine]", "values": [
      {"measurement": "Scratch bouts, chloroquine-induced pruritus, % of the control value", "setting": "mice [1]; 50 mg/kg i.p., 30 min observation", "value": "25.12 % of the control value"},
      {"measurement": "Number of scratch bouts, chloroquine-induced pruritus", "setting": "mice [1]; 50 mg/kg i.p., 30 min observation (control 72.20 ± 11.59)", "value": "18.14 ± 3.48", "unit": "scratch bouts"},
      {"measurement": "Effect on number of scratch bouts, chloroquine-induced pruritus", "setting": "mice [1]; doses 25 mg/kg and 50 mg/kg i.p.", "value": "significantly decreased the number of scratch bouts"},
      {"measurement": "Effect on number of scratch bouts, chloroquine-induced pruritus", "setting": "mice [1]; doses of 6.25 mg/kg and 12.5 mg/kg i.p.", "value": "not statistically significant"},
      {"measurement": "Paw licking/biting, late phase of formalin test, % of the control group", "setting": "mice [2]; 50 mg/kg i.p.", "value": "44.02 % of the control group"},
      {"measurement": "Paw licking/biting, late phase of formalin test, % of the control group", "setting": "mice [2]; 75 mg/kg i.p.", "value": "56.62 % of the control group"},
      {"measurement": "Duration of nociceptive response, acute phase of formalin test", "setting": "mice [2]; i.p., 0–5 min after formalin", "value": "did not significantly affect"},
      {"measurement": "H1R activity at 10 µM", "setting": "H1R", "value": 0, "unit": "%"},
      {"measurement": "Mass Retention (R)", "setting": "[3]; 200 µM, 5 h", "value": 3.15, "unit": "%"},
      {"measurement": "Papp at 5 h, 200 µM", "setting": "[3]; PBS pH 7.4, permeable if Pe > 1.5 × 10^−6 cm/s, read-out: Pe (permeability coefficient) ± SD", "value": "12.3 ± 0.31", "unit": "×10⁻⁶ cm/s"},
      {"measurement": "Scratch bouts, histamine-induced pruritus, % of the control value", "setting": "mice [4]; 60 min observation", "value": "13.47 % of the control value"},
      {"measurement": "Number of scratch bouts, histamine-induced pruritus", "setting": "mice [4]; 60 min observation (control 62.11 ± 9.4)", "value": "8.37 ± 1.96", "unit": "scratch bouts"},
      {"measurement": "cAMP hH4R % of max. Antagonist Activity at 10 µM", "setting": "hH4R [5]", "value": 100, "unit": "%"},
      {"measurement": "IC50", "setting": "hH4R [6]; antagonist mode, histamine 500 nM (EC80), Tango-H4-bla U2OS cells, read-out: β-arrestin hH4R IC50 ± SEM", "value": "10 ± 1", "unit": "nM"},
      {"measurement": "β-arrestin hH4R % of max. Antagonist Activity at 10 µM", "setting": "hH4R [6]; at 10 µM, antagonist mode", "value": 101, "unit": "%"},
      {"measurement": "Kb", "setting": "hH4R [6]; calculated from IC50 by Leff–Dougall variant of Cheng–Prusoff equation, read-out: pKb β-arrestin ± SEM (converted)", "value": 1.62, "unit": "nM"}
    ]}
  ]
}
